Laboratory results: PubChem BioAssay (NCI)
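Dose response: 5 concentrations. Exposure: 48 h. Format: 96-well plates. Endpoint: linear interpolation; highest concentration if not reached. GI50 marks 50% less growth. TGI marks complete inhibition of growth.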

The molecules below were run on NCI-H226 lung (assay: growth of human tumour cells (NCI), 48 h).

SMILES | TGI [µM]
N#Cc1sc2nc(/C=C3/C=CC=CC3=O)c(O)n2c1N | > 100
NS(=O)(=O)c1ccc(-n2c(-c3cccs3)nc3ccc(I)cc3c2=O)cc1 | 87.3

Each molecule was assayed on MDA-MB-435 (assay: growth of human tumour cells (NCI), 48 h).

SMILES | TGI [µM]
N#Cc1c(-c2ccccc2)[nH]c2ccccc2c1=O | 59.2
O/N=C\c1c(O)ccc2ccccc12 | > 100
CCOC(=O)c1csc(NC(=O)C(C)N2CCCCC2)n1 (stereo unspecified) | > 100
CC1=NC(=Cc2ccc(O)cc2)C(=O)N1n1c(-c2ccccc2)nc2ccccc2c1=O | > 100
COc1ccc2c(c1)CN1C(=N2)CSC1c1cc([N+](=O)[O-])ccc1Cl (stereo unspecified) | > 100
N#Cc1sc2nc(/C=C3/C=CC=CC3=O)c(O)n2c1N | > 100
NS(=O)(=O)c1ccc(-n2c(-c3cccs3)nc3ccc(I)cc3c2=O)cc1 | 42.4
Cc1cccc2c1Oc1cc(Cl)ccc1C2NC(=O)CCN1CCOCC1 (stereo unspecified) | > 100

What follows are molecules tested on MALME-3M melanoma (assay: growth of human tumour cells (NCI), 48 h).

SMILES | TGI [µM]
N#Cc1c(-c2ccccc2)[nH]c2ccccc2c1=O | > 100
O/N=C\c1c(O)ccc2ccccc12 | 75.5
CCOC(=O)c1csc(NC(=O)C(C)N2CCCCC2)n1 (stereo unspecified) | > 100
CC1=NC(=Cc2ccc(O)cc2)C(=O)N1n1c(-c2ccccc2)nc2ccccc2c1=O | > 100
COc1ccc2c(c1)CN1C(=N2)CSC1c1cc([N+](=O)[O-])ccc1Cl (stereo unspecified) | > 100
N#Cc1sc2nc(/C=C3/C=CC=CC3=O)c(O)n2c1N | > 100
NS(=O)(=O)c1ccc(-n2c(-c3cccs3)nc3ccc(I)cc3c2=O)cc1 | 43.2

Each molecule was assayed on T-47D breast (assay: growth of human tumour cells (NCI), 48 h).

SMILES | TGI [µM] | GI50 [µM]
O/N=C\c1c(O)ccc2ccccc12 | > 100 | –
CCOC(=O)c1csc(NC(=O)C(C)N2CCCCC2)n1 (stereo unspecified) | > 100 | –
CC1=NC(=Cc2ccc(O)cc2)C(=O)N1n1c(-c2ccccc2)nc2ccccc2c1=O | > 100 | –
COc1ccc2c(c1)CN1C(=N2)CSC1c1cc([N+](=O)[O-])ccc1Cl (stereo unspecified) | > 100 | –
N#Cc1sc2nc(/C=C3/C=CC=CC3=O)c(O)n2c1N | > 100 | –
NS(=O)(=O)c1ccc(-n2c(-c3cccs3)nc3ccc(I)cc3c2=O)cc1 | 43.5 | 19.2
Cc1cccc2c1Oc1cc(Cl)ccc1C2NC(=O)CCN1CCOCC1 (stereo unspecified) | > 100 | –

What follows are molecules tested on MCF7 breast (assay: growth of human tumour cells (NCI), 48 h).

SMILES | TGI [µM]
N#Cc1c(-c2ccccc2)[nH]c2ccccc2c1=O | > 100
O/N=C\c1c(O)ccc2ccccc12 | > 100
CCOC(=O)c1csc(NC(=O)C(C)N2CCCCC2)n1 (stereo unspecified) | > 100
CC1=NC(=Cc2ccc(O)cc2)C(=O)N1n1c(-c2ccccc2)nc2ccccc2c1=O | > 100
COc1ccc2c(c1)CN1C(=N2)CSC1c1cc([N+](=O)[O-])ccc1Cl (stereo unspecified) | > 100
N#Cc1sc2nc(/C=C3/C=CC=CC3=O)c(O)n2c1N | > 100
NS(=O)(=O)c1ccc(-n2c(-c3cccs3)nc3ccc(I)cc3c2=O)cc1 | 65.4
Cc1cccc2c1Oc1cc(Cl)ccc1C2NC(=O)CCN1CCOCC1 (stereo unspecified) | > 100

These molecules were tested on OVCAR-5 ovarian (assay: growth of human tumour cells (NCI), 48 h).

SMILES | TGI [µM]
N#Cc1c(-c2ccccc2)[nH]c2ccccc2c1=O | > 100
O/N=C\c1c(O)ccc2ccccc12 | > 100
CCOC(=O)c1csc(NC(=O)C(C)N2CCCCC2)n1 (stereo unspecified) | > 100
COc1ccc2c(c1)CN1C(=N2)CSC1c1cc([N+](=O)[O-])ccc1Cl (stereo unspecified) | > 100
N#Cc1sc2nc(/C=C3/C=CC=CC3=O)c(O)n2c1N | > 100
NS(=O)(=O)c1ccc(-n2c(-c3cccs3)nc3ccc(I)cc3c2=O)cc1 | 59.9
Cc1cccc2c1Oc1cc(Cl)ccc1C2NC(=O)CCN1CCOCC1 (stereo unspecified) | > 100

Each molecule was assayed on HL-60(TB) leukemia (assay: growth of human tumour cells (NCI), 48 h).

SMILES | TGI [µM]
N#Cc1c(-c2ccccc2)[nH]c2ccccc2c1=O | > 100
O/N=C\c1c(O)ccc2ccccc12 | 54.9
CCOC(=O)c1csc(NC(=O)C(C)N2CCCCC2)n1 (stereo unspecified) | > 100
CC1=NC(=Cc2ccc(O)cc2)C(=O)N1n1c(-c2ccccc2)nc2ccccc2c1=O | > 100
COc1ccc2c(c1)CN1C(=N2)CSC1c1cc([N+](=O)[O-])ccc1Cl (stereo unspecified) | 45.8
N#Cc1sc2nc(/C=C3/C=CC=CC3=O)c(O)n2c1N | 44.3
NS(=O)(=O)c1ccc(-n2c(-c3cccs3)nc3ccc(I)cc3c2=O)cc1 | 64.4
Cc1cccc2c1Oc1cc(Cl)ccc1C2NC(=O)CCN1CCOCC1 (stereo unspecified) | > 100

These molecules were tested on HOP-62 NSCLC (assay: growth of human tumour cells (NCI), 48 h).

SMILES | TGI [µM]
N#Cc1c(-c2ccccc2)[nH]c2ccccc2c1=O | 84.9
O/N=C\c1c(O)ccc2ccccc12 | > 100
CCOC(=O)c1csc(NC(=O)C(C)N2CCCCC2)n1 (stereo unspecified) | > 100
CC1=NC(=Cc2ccc(O)cc2)C(=O)N1n1c(-c2ccccc2)nc2ccccc2c1=O | > 100
COc1ccc2c(c1)CN1C(=N2)CSC1c1cc([N+](=O)[O-])ccc1Cl (stereo unspecified) | > 100
N#Cc1sc2nc(/C=C3/C=CC=CC3=O)c(O)n2c1N | > 100
NS(=O)(=O)c1ccc(-n2c(-c3cccs3)nc3ccc(I)cc3c2=O)cc1 | 84.2
Cc1cccc2c1Oc1cc(Cl)ccc1C2NC(=O)CCN1CCOCC1 (stereo unspecified) | > 100

Each molecule was assayed on 786-0 renal (assay: growth of human tumour cells (NCI), 48 h).

SMILES | TGI [µM]
N#Cc1c(-c2ccccc2)[nH]c2ccccc2c1=O | > 100
O/N=C\c1c(O)ccc2ccccc12 | > 100
CC1=NC(=Cc2ccc(O)cc2)C(=O)N1n1c(-c2ccccc2)nc2ccccc2c1=O | > 100
COc1ccc2c(c1)CN1C(=N2)CSC1c1cc([N+](=O)[O-])ccc1Cl (stereo unspecified) | > 100
N#Cc1sc2nc(/C=C3/C=CC=CC3=O)c(O)n2c1N | > 100
NS(=O)(=O)c1ccc(-n2c(-c3cccs3)nc3ccc(I)cc3c2=O)cc1 | 77.8
Cc1cccc2c1Oc1cc(Cl)ccc1C2NC(=O)CCN1CCOCC1 (stereo unspecified) | > 100

Each molecule was assayed on HOP-92 NSCLC (assay: growth of human tumour cells (NCI), 48 h).

SMILES | TGI [µM]
N#Cc1c(-c2ccccc2)[nH]c2ccccc2c1=O | > 100
O/N=C\c1c(O)ccc2ccccc12 | > 100
CCOC(=O)c1csc(NC(=O)C(C)N2CCCCC2)n1 (stereo unspecified) | > 100
COc1ccc2c(c1)CN1C(=N2)CSC1c1cc([N+](=O)[O-])ccc1Cl (stereo unspecified) | > 100
N#Cc1sc2nc(/C=C3/C=CC=CC3=O)c(O)n2c1N | > 100
NS(=O)(=O)c1ccc(-n2c(-c3cccs3)nc3ccc(I)cc3c2=O)cc1 | 54.1
Cc1cccc2c1Oc1cc(Cl)ccc1C2NC(=O)CCN1CCOCC1 (stereo unspecified) | 95.2

The molecules below were run on KM12 colon (assay: growth of human tumour cells (NCI), 48 h).

SMILES | TGI [µM]
N#Cc1c(-c2ccccc2)[nH]c2ccccc2c1=O | > 100
O/N=C\c1c(O)ccc2ccccc12 | > 100
CCOC(=O)c1csc(NC(=O)C(C)N2CCCCC2)n1 (stereo unspecified) | > 100
CC1=NC(=Cc2ccc(O)cc2)C(=O)N1n1c(-c2ccccc2)nc2ccccc2c1=O | > 100
COc1ccc2c(c1)CN1C(=N2)CSC1c1cc([N+](=O)[O-])ccc1Cl (stereo unspecified) | > 100
N#Cc1sc2nc(/C=C3/C=CC=CC3=O)c(O)n2c1N | > 100
NS(=O)(=O)c1ccc(-n2c(-c3cccs3)nc3ccc(I)cc3c2=O)cc1 | 59.3
Cc1cccc2c1Oc1cc(Cl)ccc1C2NC(=O)CCN1CCOCC1 (stereo unspecified) | > 100

The molecules below were run on SNB-19 CNS (assay: growth of human tumour cells (NCI), 48 h).

SMILES | TGI [µM]
N#Cc1c(-c2ccccc2)[nH]c2ccccc2c1=O | 74.9
O/N=C\c1c(O)ccc2ccccc12 | > 100
CCOC(=O)c1csc(NC(=O)C(C)N2CCCCC2)n1 (stereo unspecified) | > 100
CC1=NC(=Cc2ccc(O)cc2)C(=O)N1n1c(-c2ccccc2)nc2ccccc2c1=O | > 100
COc1ccc2c(c1)CN1C(=N2)CSC1c1cc([N+](=O)[O-])ccc1Cl (stereo unspecified) | > 100
N#Cc1sc2nc(/C=C3/C=CC=CC3=O)c(O)n2c1N | > 100
NS(=O)(=O)c1ccc(-n2c(-c3cccs3)nc3ccc(I)cc3c2=O)cc1 | 70.6
Cc1cccc2c1Oc1cc(Cl)ccc1C2NC(=O)CCN1CCOCC1 (stereo unspecified) | > 100

What follows are molecules tested on MOLT-4 leukemia (assay: growth of human tumour cells (NCI), 48 h).

SMILES | TGI [µM]
N#Cc1c(-c2ccccc2)[nH]c2ccccc2c1=O | > 100
CCOC(=O)c1csc(NC(=O)C(C)N2CCCCC2)n1 (stereo unspecified) | > 100
CC1=NC(=Cc2ccc(O)cc2)C(=O)N1n1c(-c2ccccc2)nc2ccccc2c1=O | > 100
COc1ccc2c(c1)CN1C(=N2)CSC1c1cc([N+](=O)[O-])ccc1Cl (stereo unspecified) | > 100
N#Cc1sc2nc(/C=C3/C=CC=CC3=O)c(O)n2c1N | 59.8
NS(=O)(=O)c1ccc(-n2c(-c3cccs3)nc3ccc(I)cc3c2=O)cc1 | > 100
Cc1cccc2c1Oc1cc(Cl)ccc1C2NC(=O)CCN1CCOCC1 (stereo unspecified) | > 100

Each molecule was assayed on CAKI-1 renal (assay: growth of human tumour cells (NCI), 48 h).

SMILES | TGI [µM]
N#Cc1c(-c2ccccc2)[nH]c2ccccc2c1=O | > 100
O/N=C\c1c(O)ccc2ccccc12 | > 100
CCOC(=O)c1csc(NC(=O)C(C)N2CCCCC2)n1 (stereo unspecified) | > 100
CC1=NC(=Cc2ccc(O)cc2)C(=O)N1n1c(-c2ccccc2)nc2ccccc2c1=O | > 100
COc1ccc2c(c1)CN1C(=N2)CSC1c1cc([N+](=O)[O-])ccc1Cl (stereo unspecified) | > 100
N#Cc1sc2nc(/C=C3/C=CC=CC3=O)c(O)n2c1N | > 100
NS(=O)(=O)c1ccc(-n2c(-c3cccs3)nc3ccc(I)cc3c2=O)cc1 | 36.6

What follows are molecules tested on HCT-116 colon (assay: growth of human tumour cells (NCI), 48 h).

SMILES | TGI [µM]
N#Cc1c(-c2ccccc2)[nH]c2ccccc2c1=O | > 100
O/N=C\c1c(O)ccc2ccccc12 | > 100
CC1=NC(=Cc2ccc(O)cc2)C(=O)N1n1c(-c2ccccc2)nc2ccccc2c1=O | > 100
COc1ccc2c(c1)CN1C(=N2)CSC1c1cc([N+](=O)[O-])ccc1Cl (stereo unspecified) | > 100
N#Cc1sc2nc(/C=C3/C=CC=CC3=O)c(O)n2c1N | > 100
NS(=O)(=O)c1ccc(-n2c(-c3cccs3)nc3ccc(I)cc3c2=O)cc1 | 31
